Measured values taken from patent US5346910A (priority 1992, dated 1994).

Experiments:
[1] = target: muscarinic cholinergic receptor (rat brain cerebral cortex homogenate); type: binding; conditions: 0.25 nM 3H-QNB, 25° C., 120 minutes
[2] = target: high affinity agonist conformation of the muscarinic cholinergic receptor (rat brain cerebral cortex homogenate); assay: [3H]-Cis-methyldioxolane (3H-CD) binding assay (high affinity); conditions: 1.0 nM 3H-CD, 25° C., 120 minutes
SDAT patients = conditions: compared to physostigmine; cited from earlier work
aged monkey = conditions: aged monkeys; cited from earlier work

SMILES | Ki [1] [nM] | Ki [2] [nM] | improvement in SDAT patients (SDAT patients) | performance in aged monkey model of SDAT (aged monkey)
CN(C)CC#CCN1C(=O)C=CC1=O [1-[4-(Dimethylamino)-2-butynyl]-1H-pyrrole-2,5-dione] | 1740 | 1480 | – | –
CSC1CC(=O)N(CC#CCN(C)C)C1=O (centres unmarked) [1-[4-(Dimethylamino)-2-butynyl]-3-(methylthio)-2,5-pyrrolidinedione] | > 100000 | 1600 | – | –
CC1=CC(=O)N(CC#CCN(C)C)C1=O [1-[4-(Dimethylamino)-2-butynyl]-3-methyl-1H-pyrrole-2,5-dione] | 1400 | 3400 | – | –
CSC1CC(=O)N(CC#CCN2CCCC2)C1=O (centres unmarked) [3-(Methylthio)-1-[4-(1-pyrrolidinyl)-2-butynyl]-2,5-pyrrolidinedione] | 2200 | 1780 | – | –
CC1=CC(=O)N(CC#CCN2CCCC2)C1=O [3-Methyl-1-[4-(1-pyrrolidinyl)-2-butynyl]-1H-pyrrole-2,5-dione] | 200 | 530 | – | –
C[N+](C)(C)CC#CCN1C(=O)C=CC1=O [4-(2,5-Dihydro-2,5-dioxo-1H-pyrrol-1-yl)-N,N,N-trimethyl-2-butyne-1-aminium iodide] | 11000 | 290 | – | –
CC1=CC(=O)N(CC#CC[N+](C)(C)C)C1=O [4-(2,5-Dihydro-3-methyl-2,5-dioxo-1H-pyrrol-1-yl)-N,N,N-trimethyl-2-butyne-1-aminium iodide] | 2300 | 560 | – | –
COC(=O)C1=CCCN(C)C1 [arecoline] | – | – | more consistent improvement | significant improvement in performance
O=C1CCCN1CC#CCN1CCCC1 [oxotremorine] | – | – | – | significant improvement in performance
